One block for each compound: values may come before it.
How the values were obtained:
[1] = target: Serine/threonine-protein kinase SBK1 (Homo sapiens) (UniProt Q52WX2); experiment: Selectivity interaction (Ambit KINOMEscan and KiNATiv profiling in Jurkat cells) EUB0000090b SBK1; format: cell-based; settings: at 1 µM
[2] = target: Protein-tyrosine kinase 6 (Homo sapiens, UniProt Q13882); experiment: Selectivity interaction (Kinase panel (Invitrogen)) EUB0000639a PTK6; settings: at 200 nM
[3] = target: High affinity choline transporter 1 (Homo sapiens) (UniProt Q9GZV3); experiment: Selectivity interaction (Eurofins CEREP Diversity Profile (receptors and ion channels)) EUB0000279b SLC5A7; settings: at 10 µM
[4] = target: T1, Dual specificity tyrosine-phosphorylation-regulated kinase 2 (Homo sapiens) (UniProt Q92630); experiment: Selectivity interaction (KinomeScan (DiscoverX)) EUB0000595a DYRK2; settings: at 10 µM
T1 sequence (whole entry): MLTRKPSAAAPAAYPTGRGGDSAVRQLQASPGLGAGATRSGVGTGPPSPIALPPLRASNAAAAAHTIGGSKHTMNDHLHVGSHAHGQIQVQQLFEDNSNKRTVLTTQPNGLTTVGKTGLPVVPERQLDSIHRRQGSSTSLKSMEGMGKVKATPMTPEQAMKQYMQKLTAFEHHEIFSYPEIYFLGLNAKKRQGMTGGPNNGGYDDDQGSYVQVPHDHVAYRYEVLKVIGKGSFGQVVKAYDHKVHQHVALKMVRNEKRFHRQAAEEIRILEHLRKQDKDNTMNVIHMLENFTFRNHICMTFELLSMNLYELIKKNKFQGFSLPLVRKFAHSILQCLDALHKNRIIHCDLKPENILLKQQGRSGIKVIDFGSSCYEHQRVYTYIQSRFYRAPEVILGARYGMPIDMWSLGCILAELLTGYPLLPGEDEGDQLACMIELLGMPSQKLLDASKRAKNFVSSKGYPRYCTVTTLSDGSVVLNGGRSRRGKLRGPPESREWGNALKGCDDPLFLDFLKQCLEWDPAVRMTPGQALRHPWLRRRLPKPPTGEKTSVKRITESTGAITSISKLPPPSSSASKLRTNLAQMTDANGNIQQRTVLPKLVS

[5] = target: T2, Phosphorylase b kinase gamma catalytic chain, liver/testis isoform (Homo sapiens) (UniProt P15735); experiment: Selectivity interaction (KinomeScan (DiscoverX)) EUB0000229b PHKG2; settings: at 10 µM
T2 sequence (whole entry): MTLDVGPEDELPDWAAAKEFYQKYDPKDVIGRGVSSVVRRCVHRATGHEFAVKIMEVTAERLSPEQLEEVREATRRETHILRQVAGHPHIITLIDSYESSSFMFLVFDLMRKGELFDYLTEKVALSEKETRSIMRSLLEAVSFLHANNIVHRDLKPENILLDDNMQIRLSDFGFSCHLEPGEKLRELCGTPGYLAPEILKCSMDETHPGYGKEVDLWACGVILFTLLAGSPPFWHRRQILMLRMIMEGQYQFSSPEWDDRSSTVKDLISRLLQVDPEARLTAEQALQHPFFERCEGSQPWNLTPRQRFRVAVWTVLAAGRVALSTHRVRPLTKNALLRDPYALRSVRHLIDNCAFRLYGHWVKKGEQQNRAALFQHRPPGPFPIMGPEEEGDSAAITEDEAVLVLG

[6] = target: T3, Mitogen-activated protein kinase kinase kinase 7 (Homo sapiens) (UniProt O43318); experiment: Selectivity interaction (ProQinase) EUB0000171b MAP3K7
T3 sequence (whole entry): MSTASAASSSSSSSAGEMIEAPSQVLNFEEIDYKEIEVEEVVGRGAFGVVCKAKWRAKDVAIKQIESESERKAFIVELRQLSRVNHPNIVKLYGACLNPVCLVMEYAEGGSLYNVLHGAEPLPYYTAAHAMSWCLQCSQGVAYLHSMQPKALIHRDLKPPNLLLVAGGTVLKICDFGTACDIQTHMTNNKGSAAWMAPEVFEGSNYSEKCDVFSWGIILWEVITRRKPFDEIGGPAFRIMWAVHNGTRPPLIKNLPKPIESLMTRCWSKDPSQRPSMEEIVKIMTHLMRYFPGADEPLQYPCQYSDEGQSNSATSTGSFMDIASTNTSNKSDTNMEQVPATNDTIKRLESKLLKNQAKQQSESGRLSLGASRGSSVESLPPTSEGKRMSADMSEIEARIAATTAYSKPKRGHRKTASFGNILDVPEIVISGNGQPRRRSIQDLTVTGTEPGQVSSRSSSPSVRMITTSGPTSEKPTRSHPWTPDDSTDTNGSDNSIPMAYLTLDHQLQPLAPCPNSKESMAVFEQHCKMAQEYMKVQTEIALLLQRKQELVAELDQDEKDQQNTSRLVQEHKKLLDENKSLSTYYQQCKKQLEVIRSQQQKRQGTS

[7] = target: CDK3/Cyclin E (Homo sapiens) (UniProt P24864+Q00526); experiment: (§1) Selectivity interaction (ProQinase) EUB0000171b CDK3; format: protein-complex assay
[8] = target: Cyclin-dependent kinase 3/Cyclin-C (Homo sapiens) (UniProt Q00526+P24863); experiment: as §1; format: protein-complex assay
[9] = target: Dual specificity protein kinase CLK3 (Homo sapiens, UniProt P49761); settings: at 1 µM
[10] = target: T4, Hormonally up-regulated neu tumor-associated kinase (Homo sapiens) (UniProt P57058); experiment: Selectivity interaction (KinomeScan (DiscoverX)) EUB0000607a HUNK; settings: at 10 µM
T4 sequence (whole entry): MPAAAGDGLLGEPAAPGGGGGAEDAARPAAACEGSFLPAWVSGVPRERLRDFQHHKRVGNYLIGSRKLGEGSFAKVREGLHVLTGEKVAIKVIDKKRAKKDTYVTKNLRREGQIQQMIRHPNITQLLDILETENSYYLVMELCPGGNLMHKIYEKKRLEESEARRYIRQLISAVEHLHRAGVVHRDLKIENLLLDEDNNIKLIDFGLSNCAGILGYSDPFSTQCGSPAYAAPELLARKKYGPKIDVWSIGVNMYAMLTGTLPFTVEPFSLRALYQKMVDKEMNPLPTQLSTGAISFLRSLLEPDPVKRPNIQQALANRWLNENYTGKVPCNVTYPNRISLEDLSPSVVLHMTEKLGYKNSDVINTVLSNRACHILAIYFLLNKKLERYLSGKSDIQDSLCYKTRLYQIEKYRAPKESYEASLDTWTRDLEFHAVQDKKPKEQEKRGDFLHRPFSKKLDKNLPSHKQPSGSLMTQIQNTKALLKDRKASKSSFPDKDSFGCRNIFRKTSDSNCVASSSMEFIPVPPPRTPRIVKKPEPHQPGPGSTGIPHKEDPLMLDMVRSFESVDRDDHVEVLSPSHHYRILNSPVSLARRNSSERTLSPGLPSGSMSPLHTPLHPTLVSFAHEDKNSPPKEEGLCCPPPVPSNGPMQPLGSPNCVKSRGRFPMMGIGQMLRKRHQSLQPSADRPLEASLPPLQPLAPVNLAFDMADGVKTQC

Adenosine receptor A2a = Adenosine receptor A2a (Homo sapiens, UniProt P29274); experiment: Selectivity interaction (Panel of kinases, GPCRs, ion channels and transporters (enzymatic assay)) EUB0000223bCl ADORA2A
Chain of Adenosine receptor A2a (P29274 whole entry): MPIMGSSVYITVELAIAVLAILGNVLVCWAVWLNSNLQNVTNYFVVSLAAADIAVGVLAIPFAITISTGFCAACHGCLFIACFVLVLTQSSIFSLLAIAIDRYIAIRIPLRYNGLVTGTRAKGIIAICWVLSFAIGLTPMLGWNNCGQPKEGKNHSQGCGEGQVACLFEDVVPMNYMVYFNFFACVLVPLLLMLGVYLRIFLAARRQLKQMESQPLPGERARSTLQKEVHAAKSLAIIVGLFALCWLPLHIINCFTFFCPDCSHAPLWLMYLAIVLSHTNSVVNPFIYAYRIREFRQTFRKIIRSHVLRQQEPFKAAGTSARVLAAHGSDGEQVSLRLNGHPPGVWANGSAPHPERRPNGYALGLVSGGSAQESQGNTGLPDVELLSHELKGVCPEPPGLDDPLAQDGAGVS

Chain of CDK3/Cyclin E (Homo sapiens) (P24864 whole entry, looked up): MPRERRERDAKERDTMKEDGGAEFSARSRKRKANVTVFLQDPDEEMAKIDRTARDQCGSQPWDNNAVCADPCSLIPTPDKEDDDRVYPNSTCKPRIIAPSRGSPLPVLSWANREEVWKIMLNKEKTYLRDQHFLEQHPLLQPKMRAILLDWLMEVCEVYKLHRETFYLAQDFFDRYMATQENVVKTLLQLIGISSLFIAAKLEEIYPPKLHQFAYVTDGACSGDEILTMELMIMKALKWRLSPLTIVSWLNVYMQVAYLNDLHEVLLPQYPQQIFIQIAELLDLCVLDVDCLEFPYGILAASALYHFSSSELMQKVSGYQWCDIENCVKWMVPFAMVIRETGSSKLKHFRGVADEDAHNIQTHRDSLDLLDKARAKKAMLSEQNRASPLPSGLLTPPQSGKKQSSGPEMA
Chain of CDK3/Cyclin E (Homo sapiens) (Q00526 whole entry, looked up): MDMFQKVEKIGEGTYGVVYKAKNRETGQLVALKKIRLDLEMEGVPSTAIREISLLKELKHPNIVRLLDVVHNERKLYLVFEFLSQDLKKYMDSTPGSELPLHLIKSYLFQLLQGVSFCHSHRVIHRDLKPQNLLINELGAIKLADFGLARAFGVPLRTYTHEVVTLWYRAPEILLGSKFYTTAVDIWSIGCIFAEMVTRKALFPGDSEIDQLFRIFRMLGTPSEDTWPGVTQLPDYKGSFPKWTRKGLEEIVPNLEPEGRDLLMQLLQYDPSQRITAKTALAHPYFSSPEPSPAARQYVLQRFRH
Chain of Cyclin-dependent kinase 3/Cyclin-C (Homo sapiens) (P24863 whole entry, looked up): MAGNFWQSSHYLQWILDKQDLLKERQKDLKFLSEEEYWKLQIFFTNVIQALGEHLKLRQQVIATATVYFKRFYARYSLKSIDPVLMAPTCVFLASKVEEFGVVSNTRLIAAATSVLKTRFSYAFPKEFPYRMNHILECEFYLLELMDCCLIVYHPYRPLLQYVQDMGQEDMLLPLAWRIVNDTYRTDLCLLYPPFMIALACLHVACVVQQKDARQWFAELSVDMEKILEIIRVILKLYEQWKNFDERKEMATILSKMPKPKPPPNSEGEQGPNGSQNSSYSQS
Chain of Cyclin-dependent kinase 3/Cyclin-C (Homo sapiens) (Q00526 whole entry, looked up): as the sequence (Q00526 whole entry, looked up) above
Chain of Protein-tyrosine kinase 6 (Q13882 whole entry, looked up): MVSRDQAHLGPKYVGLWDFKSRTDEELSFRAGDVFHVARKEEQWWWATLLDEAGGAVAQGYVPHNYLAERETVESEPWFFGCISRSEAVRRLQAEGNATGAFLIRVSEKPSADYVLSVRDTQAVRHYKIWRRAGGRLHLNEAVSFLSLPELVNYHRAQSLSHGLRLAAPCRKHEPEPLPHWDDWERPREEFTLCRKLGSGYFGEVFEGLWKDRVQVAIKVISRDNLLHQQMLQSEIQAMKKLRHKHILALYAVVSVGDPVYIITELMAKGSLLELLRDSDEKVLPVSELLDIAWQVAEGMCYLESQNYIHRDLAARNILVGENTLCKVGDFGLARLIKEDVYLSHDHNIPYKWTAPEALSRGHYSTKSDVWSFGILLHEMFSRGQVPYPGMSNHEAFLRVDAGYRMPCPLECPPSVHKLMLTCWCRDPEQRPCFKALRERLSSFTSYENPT
Chain of Serine/threonine-protein kinase SBK1 (Homo sapiens) (Q52WX2 whole entry): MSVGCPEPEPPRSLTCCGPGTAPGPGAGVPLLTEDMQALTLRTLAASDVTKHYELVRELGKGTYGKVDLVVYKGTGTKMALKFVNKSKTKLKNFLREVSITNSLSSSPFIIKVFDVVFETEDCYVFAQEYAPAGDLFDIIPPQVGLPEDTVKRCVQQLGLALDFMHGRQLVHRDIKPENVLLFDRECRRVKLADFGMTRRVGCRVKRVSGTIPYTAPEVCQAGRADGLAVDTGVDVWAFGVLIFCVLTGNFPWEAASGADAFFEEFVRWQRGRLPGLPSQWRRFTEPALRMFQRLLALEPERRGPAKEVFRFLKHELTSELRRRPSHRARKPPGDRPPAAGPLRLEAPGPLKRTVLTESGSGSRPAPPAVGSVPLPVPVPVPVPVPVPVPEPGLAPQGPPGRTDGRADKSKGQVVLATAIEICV
Chain of High affinity choline transporter 1 (Homo sapiens) (Q9GZV3 whole entry): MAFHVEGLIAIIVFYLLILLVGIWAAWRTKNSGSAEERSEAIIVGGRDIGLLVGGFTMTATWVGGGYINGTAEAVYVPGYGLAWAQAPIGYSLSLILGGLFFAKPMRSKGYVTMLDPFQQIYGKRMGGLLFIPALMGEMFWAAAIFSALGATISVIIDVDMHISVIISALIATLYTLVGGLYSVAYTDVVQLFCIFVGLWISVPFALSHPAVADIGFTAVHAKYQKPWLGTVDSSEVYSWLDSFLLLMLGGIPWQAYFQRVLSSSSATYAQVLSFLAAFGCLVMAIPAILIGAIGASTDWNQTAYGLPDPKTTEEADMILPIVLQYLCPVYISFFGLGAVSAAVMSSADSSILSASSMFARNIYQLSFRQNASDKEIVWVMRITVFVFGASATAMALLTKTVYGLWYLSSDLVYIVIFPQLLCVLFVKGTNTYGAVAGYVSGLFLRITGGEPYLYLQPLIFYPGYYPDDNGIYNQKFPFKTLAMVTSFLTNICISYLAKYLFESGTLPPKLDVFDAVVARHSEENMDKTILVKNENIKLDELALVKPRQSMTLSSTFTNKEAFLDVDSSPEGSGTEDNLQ
Chain of Dual specificity protein kinase CLK3 (P49761 whole entry, looked up): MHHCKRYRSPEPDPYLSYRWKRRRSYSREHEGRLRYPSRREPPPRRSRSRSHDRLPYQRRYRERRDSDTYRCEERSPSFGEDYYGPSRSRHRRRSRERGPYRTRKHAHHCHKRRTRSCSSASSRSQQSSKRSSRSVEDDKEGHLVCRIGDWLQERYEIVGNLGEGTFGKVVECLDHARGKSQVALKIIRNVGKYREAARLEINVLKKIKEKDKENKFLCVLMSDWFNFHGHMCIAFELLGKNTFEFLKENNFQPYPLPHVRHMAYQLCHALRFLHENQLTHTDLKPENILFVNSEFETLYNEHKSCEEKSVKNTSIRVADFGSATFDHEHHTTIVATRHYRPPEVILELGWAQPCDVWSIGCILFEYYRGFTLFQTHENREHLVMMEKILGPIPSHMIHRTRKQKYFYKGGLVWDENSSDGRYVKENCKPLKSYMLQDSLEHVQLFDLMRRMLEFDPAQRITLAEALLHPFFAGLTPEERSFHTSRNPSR

Structure (SMILES): CN(C)C/C=C/C(=O)Nc1ccc(C(=O)N2CCCC(Nc3ncc(Cl)c(-c4c[nH]c5ccccc45)n3)C2)cc1 (centres undefined)
% of control [1]: 100%

% of inhibition [2]: -1.08%
Structure (SMILES): CC[C@@H]1[C@H](F)C(=O)N[C@@H]1COc1nccc2cc(C(N)=O)c(OC)cc12 [ZIMLOVISERTIB]

% of control [3]: 90%
Structure (SMILES): CC(=O)c1cc(-c2ccccc2OCC2CC2)c2ncccn12

Structure (SMILES): COCC(=O)NC/C=C/c1ccc2ncnc(Nc3ccc(Oc4ccc(C)nc4)c(C)c3)c2c1 [CP-724714]
% of control [4]: 100%

Structure (SMILES): COc1cc(N(C)c2ccnc3ccc(C(F)(F)F)cc23)cc(OC)c1OC
% binding [5]: 85%

% of control ([6]; at 1 µM): 101% | % of control ([6]; at 5 µM): 77% | % of control ([7]; at 1 µM): 98% | % of control ([7]; at 5 µM): 79% | % of control ([8]; at 1 µM): 91% | % of control ([8]; at 5 µM): 74%
Structure (SMILES): C=CC(=O)Nc1cccc(C(=O)Nc2ccc(Nc3cc(-c4[nH]c(SC)nc4C)ccn3)cc2)c1

% of inhibition [9]: 24%
Structure (SMILES): Cc1ccc(-c2ccc3c(ccc4sc5c(c43)NC[C@@H](C)NC5=O)n2)cn1

Structure (SMILES): CNC(=O)Nc1ccc(-c2nc(N3CC4CCC(C3)O4)c3cnn(C4CCC5(CC4)OCCO5)c3n2)cc1
% of control [10]: 100%

Structure (SMILES): COc1cc(C(=O)N2CC[C@@H](O)[C@@H](N)C2)cc2nc(-c3cc4ccccc4n3CC3CC3)n(C)c12
pXC50 (Adenosine receptor A2a): < 4.5 M

Reference: ChEMBL document CHEMBL5465560, “Selectivity Literature for EUbOPEN Chemogenomic Library” (2024)
